From paper PMC8092843 (Journal of Virology, 2021)
Where two headings read alike, the source gives them in different places. Ends that are not written are not given here.

Target: HLA-A*02:01 molecule (UniProt P01899+P04439, D140Y/D185E/D98H/E176V/G131W/I119V/I121R/I166T/N151K/N90K/Q86G/Q94H/R138H/R169H)
Assay: cell-based
Assay type: binding, human

Sequence | EC50 (SD) | EC50
AIFYLITPV [pp1a-2785] | 5.1 ± 1.6 µM | 
ALLSDLQDL [pp1a-4183] | 42.4 ± 6.1 µM | 
ALNLGETFV [pp1a-702] | 40.7 ± 2.8 µM | 
CLHVVGPNV [pp1a-1114] | 62.9 ± 2.3 µM | 
CLLNRYFRL [pp1a-3798] | 81.6 ± 20.2 µM | 
FITESKPSV [pp1a-1214] | 122 ± 31.7 µM | 
FLAHIQWMV [pp1a-3122] | 6.9 ± 0.4 µM | 
FLALCADSI [pp1a-685] | 10.2 ± 0.5 µM | 
FLARGIVFM [pp1a-3753] | 71.2 ± 12.9 µM | 
FLGRYMSAL [pp1a-1642] | 124 ± 1.9 µM | 
FLLNKEMYL [pp1a-3183] | 12.9 ± 6.8 µM | 
FLNGSCGSV [pp1a-3403] | 18.7 ± 3.2 µM | 
FLRDGWEIV [pp1a-641] | 0.9 ± 0.1 µM | 
GILFGVFTL [FMP58-66, reference compound] |  | 2.3 µM
GLNDNLLEI [pp1a-445] | 6 ± 0.2 µM | 
GLVEVEKGV [pp1a-52] | 14.5 ± 4.9 µM | 
IIWFLLLSV [pp1a-2230] | 177 ± 6.3 µM | 
ILFTRFFYV [pp1a-2332] | 96.5 ± 14 µM | 
ILGTVSWNL [pp1a-1367] | 123 ± 11.3 µM | 
ILLLDQALV [pp1a-2569] | 9.6 ± 1.5 µM | 
ILTSLLVLV [pp1a-3587] | 8.3 ± 0.9 µM | 
IVAGGIVAI [pp1a-3047] | 50.5 ± 2.5 µM | 

Sequence | EC50 (SD) | EC50
KLIEYTDFA [pp1a-2901] | 126 ± 2.5 µM | 
KLMPVCVET [pp1a-1387] | 174 ± 33.5 µM | 
KLNEEIAII [pp1a-468] | 56.2 ± 4.8 µM | 
KLWAQCVQL [pp1a-3886] | 27.2 ± 9.4 µM | 
KTLQPVSEL [pp1a-881] | 162 ± 28.3 µM | 
LLFLMSFTV [pp1a-3083] | 39.4 ± 0.9 µM | 
LLLTILTSL [pp1a-3583] | 63.8 ± 3.1 µM | 
LMWLIINLV [pp1a-2364] | 159 ± 42.8 µM | 
MLAKALRKV [pp1a-1312] | 95.2 ± 0.7 µM | 
MLFTMLRKL [pp1a-4032] | 166 ± 21.7 µM | 
NLAKHCLHV [pp1a-1109] | 38.5 ± 8.2 µM | 
QLFFSYFAV [pp1a-2348] | 146 ± 19.7 µM | 
QLMCQPILL [pp1a-2563] | 11.1 ± 1.8 µM | 
QLSLPVLQV [pp1a-15] | 79.4 ± 4.4 µM | 
RIMTWLDMV [pp1a-3662] | 76.5 ± 7.1 µM | 
SLINTLNDL [pp1a-1433] | 123 ± 11 µM | 
SLIYSTAAL [pp1a-2242] | 134 ± 7.6 µM | 
SLPGVFCGV [pp1a-3013] | 3.1 ± 0.2 µM | 
SLRVCVDTV [pp1a-1161] | 85.7 ± 1.9 µM | 
SMQNCVLKL [pp1a-3344] | 105 ± 2.2 µM | 
SMWALIISV [pp1a-3732] | 8.9 ± 0.4 µM | 
TLGVLVPHV [pp1a-103] | 1.3 ± 0.2 µM | 

Sequence | EC50 (SD) | EC50
TLGVYDYLV [pp1a-3807] | 61.7 ± 8.7 µM | 
TLMNVLTLV [pp1a-3710] | 2 ± 0.4 µM | 
TLSEQLDFI [pp1a-214] | 2 ± 0.2 µM | 
TVYEKLKPV [pp1a-619] | 5.6 ± 0.7 µM | 
VINGDRWFL [pp1a-3475] | 85 ± 5.4 µM | 
VLLSMQGAV [pp1a-3917] | 112 ± 7.2 µM | 
VLLSVLQQL [pp1a-3871] | 44.9 ± 6 µM | 
VLSEARQHL [pp1a-38] | 76.8 ± 6.8 µM | 
VLVPHVGEI [pp1a-106] | 76 ± 2 µM | 
VMAYITGGV [pp1a-597] | 9.5 ± 0.9 µM | 
VMVELVAEL [pp1a-84] | 6.8 ± 0.3 µM | 
WLMWLIINL [pp1a-2363] | 103 ± 6.4 µM | 
WMVMFTPLV [pp1a-3128] | 9.8 ± 1.1 µM | 
YITGGVVQL [pp1a-600] | 48.5 ± 7.9 µM | 
YLASGGQPI [pp1a-4283] | 39.8 ± 6.2 µM | 
YLATALLTL [pp1a-1675] | 8.4 ± 0.2 µM | 
YLEGSVRVV [pp1a-2968] | 7.5 ± 0.1 µM | 
YLNSTNVTI [pp1a-2270] | 8.9 ± 0.3 µM | 
YLTNDVSFL [pp1a-3115] | 4.8 ± 0.3 µM | 
YMPYFFTLL [pp1a-2168] | 99 ± 2.4 µM | 
